From patent US5171573A, “4^G -alpha-D-glucopyranosyl rutin, and its preparation and uses” (Kabushiki Kaisha Hayashibara Seibutsu Kagaku Kenkyujo, priority 1989, dated 1992)
≈ marks a conversion by molar mass, not a printed value.

Experiments:
[1] = Solubility in solvents / water-solubility; type: physicochemical
Experimental: Soluble in methanol and ethanol. […] One ml water dissolves about 4.3 g of the present substance at 25° C. Only 1 g rutin (control) dissolves in 8 liters of water.

[2] = tested on: alpha-glucosidase derived from pig liver; test: Hydrolysis using an alpha-glucosidase derived from pig liver; type: biochemical
Description: ii) Hydrolysis using an alpha-glucosidase derived from pig liver yields 1 mole of glucose per mole of rutin.

7-week old dd mice = test: Acute toxicity, oral, 7-week old dd mice
[3] = Physical properties (hygroscopicity, acidity in aqueous solution); type: physicochemical
[4] = Stability in aqueous solution; type: physicochemical; settings: pH 3-7, aqueous solution
[5] = Antioxidant activity on powdered peanut butter (peroxide value during standing at 35° C.)
Experimental: 4^G -Alpha-D-glucopyranosyl rutin was tested for antioxidant activity on powdered peanut butter which is used an example of fatty food substances highly susceptive to oxidation. […] The mixture was placed in a tray, sealed, solidified by allowing it to stand at 35° C. for 1 day, and prepared into a powder which was then placed in aluminum cups and allowed to stand in a 35° C. incubator without sealing. During the standing, the contents in the aluminum cups were periodically checked for their peroxide value. […] As the control, a group with no antioxidant was tested similarly as above.

[6] = ambient temperature, prior art; cited from earlier work

C[C@@H]1O[C@@H](OC[C@H]2O[C@@H](Oc3c(-c4ccc(O)c(O)c4)oc4cc(O)cc(O)c4c3=O)[C@H](O)[C@@H](O)[C@@H]2O[C@H]2O[C@H](CO)[C@@H](O)[C@H](O)[C@H]2O)[C@H](O)[C@H](O)[C@H]1O [4^G -alpha-D-glucopyranosyl rutin]
Solubility in solvent: 0.1N hydrochloric acid [1]: Readily soluble
Solubility in solvent: 0.1N sodium hydroxide [1]: Readily soluble
Solubility in solvent: acetic acid [1]: Readily soluble
Solubility in solvent: chloroform [1]: Hardly soluble
Solubility in solvent: ethanol [1]: Soluble
Solubility in solvent: ethyl acetate [1]: Hardly soluble
Solubility in solvent: methanol [1]: Soluble
Solubility in solvent: water [1]: Readily soluble
solubility improved as compared to that of rutin [1]: about thirty thousand
solubility ([1]; water): ~4300 mg/mL (≈ 5570 mM)
glucose yielded on enzymatic hydrolysis [2]: 1 mole of glucose per mole of rutin
acute toxicity, in words (7-week old dd mice; 7-week old dd mice, powder of Example A-3): extremely low in toxicity
acute toxicity: dose up to which no mouse died (7-week old dd mice; 7-week old dd mice, powder of Example A-3, higher dose was difficult): > 5 g
acute toxicity, in words (7-week old dd mice; dd mice, high-purity powder of Example A-4, same result as Example A-3 powder): extremely low
acidity in aqueous solution ([3]; aqueous solution): Neutral or slightly acidic
hygroscopicity / deliquescence ([3]; powder, purity about 99.8%): Non-hygroscopic and non-deliquescent
Stability in aqueous solution [4]: Superiorily stable
peroxide value ([5]; 0 days): 1.78 meq/kg
peroxide value ([5]; 8 days): 5.53 meq/kg
peroxide value ([5]; 27 days): 14.6 meq/kg
peroxide value ([5]; 42 days): 23.4 meq/kg
peroxide value ([5]; 55 days): 32.5 meq/kg

C[C@@H]1O[C@@H](OC[C@H]2O[C@@H](Oc3c(-c4ccc(O)c(O)c4)oc4cc(O)cc(O)c4c3=O)[C@H](O)[C@@H](O)[C@@H]2O)[C@H](O)[C@H](O)[C@H]1O [rutin]
Solubility in 8 liters of water ([1]; 8 liters of water (control)): 1 g
water-solubility [6]: about 0.01 w/v %
